According to paper PMC6147235 (iScience, 2018):

Test system: WT OPS, G51A, T17M, P171Q, P180A
Experiment: Subcellular localization
Type: cell-based, human
Conditions: 10 µM all-trans retinal, P180A in COS-7 cells

CC1=C(/C=C/C(C)=C/C=C/C(C)=C/C=O)C(C)(C)CCC1 [all-trans retinal]
effect on subcellular localization (PCC and RetP1/1D4): no effect
